# Experimental data: patent publication US20260022095A1, “COMPOUNDS USEFUL FOR THE PREPARATION OF VARIOUS AGROCHEMICALS AND MARKERS THEREOF” (ADAMA AGAN LTD., priority 2021, published 2026)
# Test: Sunlight exposure of buffered aqueous Tetflupyrolimet solutions, Storage Marker formation by HPLC-MS
# Format: physicochemical
# Conditions: natural sunlight approximately 2 months; for concentration of the Storage Marker as compared to the solution buffered at pH=7: quartz tube
# Protocol: Three lots of about 50 mg of Tetflupyrolimet were each suspended in about 2 ml of a 2% solution of acetonitrile in water, and sonicated for about 20 minutes.
# Into each, about 0.1 ml of a different buffer was added, pH=4, pH=7 and pH=10 respectively.
# The three solutions were each filtered and introduced to quartz tubes and exposed to natural sunlight for approximately 2 months.
# • Column: Agilent Zorbax Eclipse XDB C18, 150×4.6 mm ID, 5.0 μm • Injection volume: 5 μL • Oven temperature: 40° C. • Detector: UV, □=230, 250, 280 nm • Solvent delivery system conditions at flow rate of 1.0 ml/min: […]
smiles,measurement,setting,value
"CN1C[C@H](c2cccc(C(F)(F)F)c2)[C@@H](C(=O)Nc2ccccc2F)C1=O [Tetflupyrolimet, (3S,4S)—N-(2-fluorophenyl)-1-methyl-2-oxo-4-(3-(trifluoromethyl)phenyl) pyrrolidine-3-carboxamide]",formation of Storage Marker (HPLC-MS),"2% acetonitrile in water, buffered at pH=4, pH=7 and pH=10, quartz tubes",formation of Storage Marker in each solution
same,concentration of the Storage Marker as compared to the solution buffered at pH=7,solution buffered at pH 4,approximately an order of magnitude higher concentration of the Storage Marker
same,concentration of the Storage Marker as compared to the solution buffered at pH=7,solution buffered at pH 10,approximately an order of magnitude higher concentration of the Storage Marker
